Measured values: patent US20120009280A1, “METHOD OF REDUCING THE RATE OF DEGRADATION OF A BIOLOGICAL MATERIAL” (Bio-Energy Ingredients Limited, priority 2009, published 2012)

Legend:
total micro-organism [1] = experiment: Total microbial (plate) count of spent brewer's / wet distiller's grains stored at ambient temperature; format: cell-based; settings: for Total plate count: 6.6% (w/w) powder
Text: Samples of spent brewer's grains were drawn from the discharge line of a brewery in South Africa. The samples, packed in dry ice in a cold box, were transported over a distance of approximately 40 kilometres to a laboratory. At the laboratory, the samples were thoroughly mixed and initially split into a first portion (Portion 1) and a second portion (Portion 2). The second portion was about twice the size of the first. Portion 1 was left untreated. Material produced from Portion 1 and Portion 2 is designated below using the code “AR” (as received).
Portion 2 was placed on a clean, standard, laboratory screen deck with 1.4 mm apertures supported from below. As much water as possible was manually squeezed out with a clean flat plastic disc and the sample was then manually remixed after the squeezing. The squeezed material was then split into a third portion (Portion 3) and a fourth portion (Portion 4) of approximately the same size. Material produced from Portion 3 and Portion 4 is designated below using the code “SO” (squeezed).
Portion 4 was added to a high speed kitchen food-shredder and shredded for about two minutes. The shredded material was then returned to the 1.4 mm aperture screen and squeezed again, as described above, and manually remixed again after the second squeezing to produce a shredded and squeezed portion (Portion 5). Material produced from Portion 5 is designated below using the code “SH” (shredded).
(§1) Samples of Portion 1 (“AR”), Portion 3 (“SO”) and Portion 5 (“SH”) were then delivered to a microbiological testing facility about 15 kilometres from the treatment laboratory. Each was tested for initial total microbial, yeast and mould counts, respectively.
(§2) Separate untreated samples were similarly stored under insect-proof screens at ambient temperature for seven days (as shown in Tables 1 and 2). During the trial period the ambient temperature ranged from 11 to 33 degrees C.
After exposure to the environment for seven days, all of the samples were tested at a South African National Accreditation System (SANAS) approved microbiological testing facility. Each was tested for total micro-organism, yeast and mould counts to determine the affect of the various treatments.
Samples of spent brewer's grains were drawn from the discharge line of a brewery in South Africa.
(§3) At the laboratory, the samples were thoroughly mixed and initially split into a first portion (Portion 1) and a second portion (Portion 2). Portion 1 was left untreated. A sample of Portion 1, was delivered immediately to a microbiological testing facility about 15 kilometres away from the treatment laboratory and was tested for initial total microbial, yeast and mould counts, respectively.
Samples from Portion 2 were subjected to treatment with varying amounts of a powdered, commercially-available calcium oxide containing approximately 94% calcium oxide (CaO) as shown in Table 32. The treatments varied from 2.5 to 10% (w/w) calcium oxide addition. The samples were stored in batches (according to the calcium oxide treatment) under insect-proof screens at ambient temperature for fifty six days. […] During the trial period the ambient temperature ranged from 10 to 30 degrees C. As this period was the southern hemisphere spring/early summer, the humidity as well as ambient temperatures varied widely.
(§4) Samples from each treatment were drawn every seven days. No further calcium oxide treatment or agitation took place after the initial mix. In each case the entire sample was isolated and delivered to the microbiological testing facility.
(§5) In this trial the same source of wet distiller's grains (again with now partial water removal prior to treatment) was treated.
as §5

total micro-organism [2] = experiment: as above; format: cell-based; settings: dose 10% w/w; distiller's grains not de-watered, Examples 16-18
mould = experiment: Mould count of spent brewer's / wet distiller's grains stored at ambient temperature; format: cell-based; settings: 6.6% (w/w) powder
Method: as §1, §2
(§6) The free moisture content on the initial spent brewer's grains was determined to be 78.1% m/m. After exposure to the environment for seven days, all of the samples were tested at a South African National Accreditation System (SANAS) approved microbiological testing facility. Each was tested for total micro-organism, yeast and mould counts to determine the affect of the various treatments. A similar procedure to that described in K. A. Rosentrater et al, Food Bioprocess Technol (2008) was used for the microbiological evaluation.
as §3, with “respectively. No water removal prior to treatment was done in this experiment as was the case in Example 8 wherein a similar wet material was partially dewatered by pressing and the residue treated with 10% (w/w/) calcium oxide.” for “respectively.”
Samples from Portion 2 were subjected to treatment with varying amounts of a powdered, commercially-available calcium oxide containing approximately 94% calcium oxide (CaO) as shown in Table 32. […] The samples were stored in batches (according to the calcium oxide treatment) under insect-proof screens at ambient temperature for fifty six days. Separate untreated samples were similarly stored under insect-proof screens at ambient temperature for a total of 56 days. During the trial period the ambient temperature ranged from 10 to 30 degrees C. As this period was the southern hemisphere spring/early summer, the humidity as well as ambient temperatures varied widely.
as §6, with “79.4%” for “78.1%”
as §4
The calcium oxide treatment trial described in Example 9 wherein wet distiller's grains were treated with 2.5%, 5% and 10.0% calcium oxide, respectively, versus untreated material was repeated using lower doses of calcium oxide. In this trial the same source of wet distiller's grains (again with now partial water removal prior to treatment) was treated. Also, the same protocol as described in Example 9 was applied, but at lower doses of calcium oxide i.e. 0.5%, 1.0%, 1.5%, 2.0% and 2.5%, respectively, versus untreated material.
In this trial the same source of wet distiller's grains (again with now partial water removal prior to treatment) was treated. Also, the same protocol as described in Example 9 was applied.

yeast = experiment: Yeast count of spent brewer's / wet distiller's grains stored at ambient temperature; format: cell-based; settings: 6.6% (w/w) powder
[3] = pH of suspensions of grain samples in distilled water or PBS; settings: 1% (w/w) in distilled water, 6.6% (w/w) powder
Method: The untreated sample (A) was compared visually against the corresponding quicklime-treated sample (B).
On Day 7, 10 g amounts of each sample were suspended in either 90 ml PBS or 90 ml sterile distilled water and shaken for 10 minutes. The pH of each suspension was then measured and compared.
On Day 9, 10 g of each sample was suspended in 90 ml PBS and shaken for 10 minutes. The pH was measured.

[4] = dose 15% w/w, distiller's grains not de-watered, Examples 16-18

Compound: [Ca+2].[O-]CC(O)CO.[O-]CC(O)CO [Ca-DGO (p)]
- preservation time with total microbial counts <10 cfu/g (total micro-organism [1]; [4]): ≧9 weeks
- preservation time with total microbial counts <100 cfu/g (total micro-organism [1]; [4]): ≧9 weeks
- preservation time with total microbial counts <1000 cfu/g (total micro-organism [1]; [4]): ≧9 weeks
- preservation time with total microbial counts <100 cfu/g (total micro-organism [2]): ≧2 weeks
- preservation time with total microbial counts <1000 cfu/g (total micro-organism [2]): ≧3 weeks

Compound: [Ca+2].[O-]CC(O)CO.[O-]CC(O)CO [Ca-DGO (g)]
- preservation time with total microbial counts <100 cfu/g (total micro-organism [1]; [4]): ≧9 weeks
- preservation time with total microbial counts <1000 cfu/g (total micro-organism [1]; [4]): ≧9 weeks
- preservation time with total microbial counts <100 cfu/g (total micro-organism [2]): ≧4 weeks
- preservation time with total microbial counts <1000 cfu/g (total micro-organism [2]): ≧4 weeks

Compound: Ca(OH2
- Total plate count (total micro-organism [1]; week 1): 420 cfu/gram
- Total plate count (total micro-organism [1]; week 2): 140 cfu/gram
- Total plate count (total micro-organism [1]; week 3): 640 cfu/gram
- Total plate count (total micro-organism [1]; week 4): 170 cfu/gram
- Total plate count (total micro-organism [1]; week 5): 20 cfu/gram
- Mould Count (mould; week 1): 10 cfu/gram
- Mould Count (mould; week 2): 10 cfu/gram
- Mould Count (mould; week 3): 10 cfu/gram
- Mould Count (mould; week 4): 10 cfu/gram
- Mould Count (mould; week 5): 10 cfu/gram
- Yeast Count (yeast; week 1): 10 cfu/gram
- Yeast Count (yeast; week 2): 10 cfu/gram
- Yeast Count (yeast; week 3): 10 cfu/gram
- Yeast Count (yeast; week 4): 120 cfu/gram
- Yeast Count (yeast; week 5): 10 cfu/gram
- pH ([3]; week 1): 11.55
- pH ([3]; week 2): 11.26
- pH ([3]; week 3): 12.10
- pH ([3]; week 4): 8.23
- pH ([3]; week 5): 11.47
